From patent US20210128609A1, “ONCOLOGY TREATMENTS USING ZINC AGENTS” (XYLONIX IP HOLDINGS PTE. LTD., priority 2018, published 2021)

Experiments:
Type in all cases: cell-based
HCC1954 = experiment: CellTiter-Glo cell viability, HCC1954
Description: (§1) The 50% inhibitory concentration (IC50) was determined in the cancer cell lines using CellTiter-Glo luminescent cell viability assay after incubation with different concentrations of active agents. Each cell line was treated with active Zn(II) agent, a standard chemotherapy drug as reference control, and culture medium as vehicle control. Cell Lines. All cell lines were cultured in media supplemented with 10-15% FBS, at a temperature of 37° C., 5% CO2, and 95% humidity. The reference control drug for all cell lines was cisplatin, to be used for genomic analysis. The cell lines tested, the tissue of origin are shown below in Table 1: Procedure for Determining Half Maximal Inhibition Concentration IC50 • 1. Harvested cells during the logarithmic growth period and count cell number using Count-star. • 2. Adjusted cell concentrations to 4.44×10^4 cells/mL with respective culture medium. • 3. Added 90 μL cell suspensions to two 96-well plates (plates A and B) with the final cell density of 4×10^3 cells/well. (cell concentration was adjusted according to the data base or density optimization assay.) • 4a. Next day: For the plates of TO reading: • 1) Added 10 μL culture medium to each well of plate A for TO reading. • 2) Equilibrated the plate and its content at RT for approximately 30 min. • 3) Added 50 μL CellTiter-Glo reagent to each well. • 4) Mixed content for 5 min on an orbital shaker to induce cell lysis. • 5) Allowed the plate to incubate at RT for 20 min to stabilize luminescent signal. • 6) Recorded luminescence (TO) using EnVision Multi Label Reader. • 4b. For the plates of test reading: • 1) Prepared 10× solution of Zn(II) agent test article. […] The formula for calculating surviving rate is shown below and the absolute IC50 (EC50) was calculated according to the dose-response curve generated by GraphPad Prism 5.0. • 12) The surviving rate (%)=(LumTest article−LumMedium control)/(LumNon-treated−LumMedium control)×100%.

Raji = experiment: CellTiter-Glo cell viability, Raji
Description: as §1

A549 = experiment: CellTiter-Glo cell viability, A549
Description: (§2) The 50% inhibitory concentration (IC50) was determined in the cancer cell lines using CellTiter-Glo luminescent cell viability assay after incubation with different concentrations of active agents. Each cell line was treated with active Zn(II) agent, a standard chemotherapy drug as reference control, and culture medium as vehicle control. Cell Lines. All cell lines were cultured in media supplemented with 10-15% FBS, at a temperature of 37° C., 5% CO2, and 95% humidity. The reference control drug for all cell lines was cisplatin, to be used for genomic analysis. The cell lines tested, the tissue of origin are shown below in Table 1: Procedure for Determining Half Maximal Inhibition Concentration IC50 • 1. Harvested cells during the logarithmic growth period and count cell number using Count-star. • 2. Adjusted cell concentrations to 4.44×10^4 cells/mL with respective culture medium. • 3. Added 90 μL cell suspensions to two 96-well plates (plates A and B) with the final cell density of 4×10^3 cells/well. (cell concentration was adjusted according to the data base or density optimization assay.) • 4a. […]

SK-OV-3 = experiment: CellTiter-Glo cell viability, SK-OV-3
Description: as §2

MCF7 = experiment: CellTiter-Glo cell viability, MCF7
Description: as §2

JVM-3 = experiment: CellTiter-Glo cell viability, JVM-3
Description: as §1

NAMALWA = experiment: CellTiter-Glo cell viability, NAMALWA
Description: as §1

JHH-7 = experiment: CellTiter-Glo cell viability, JHH-7
Description: as §1

NCI-H460 = experiment: CellTiter-Glo cell viability, NCI-H460
Description: as §1

CA46 = experiment: CellTiter-Glo cell viability, CA46
Description: as §1

ML-2 = experiment: CellTiter-Glo cell viability, ML-2
Description: as §1

NALM-6 = experiment: CellTiter-Glo cell viability, NALM-6
Description: as §1

NCI-H929 = experiment: CellTiter-Glo cell viability, NCI-H929
Description: as §1

Hep G2 = experiment: CellTiter-Glo cell viability, Hep G2
Description: as §1

DU 145 = experiment: CellTiter-Glo cell viability, DU 145
Description: as §1

OCI-LY-19 = experiment: CellTiter-Glo cell viability, OCI-LY-19
Description: as §1

WSU-NHL = experiment: CellTiter-Glo cell viability, WSU-NHL
Description: as §1

DU4475 = experiment: CellTiter-Glo cell viability, DU4475
Description: as §1

U-937 = experiment: CellTiter-Glo cell viability, U-937
Description: as §1

AsPC-1 = experiment: CellTiter-Glo cell viability, AsPC-1
Description: as §1

THP-1 = experiment: CellTiter-Glo cell viability, THP-1
Description: as §1

Kasumi-1 = experiment: CellTiter-Glo cell viability, Kasumi-1
Description: as §1

K-562 = experiment: CellTiter-Glo cell viability, K-562
Description: as §1

EOL-1 = experiment: CellTiter-Glo cell viability, EOL-1
Description: as §1

OCI-AML2 = experiment: CellTiter-Glo cell viability, OCI-AML2
Description: as §1

HCT-116 = experiment: CellTiter-Glo cell viability, HCT-116
Description: as §1

[1] = 96 h, top conc. 50 μg/mL Zn(II) agent, 100 μM cisplatin

N.N.[Cl][Pt][Cl] [Cisplatin]
Absolute IC50 (HCC1954; 96 h, CellTiter-Glo): 1.59 µg/mL
% inhibition at top conc. (HCC1954; [1]): 99.87%
HillSlope (HCC1954; 96 h dose-response fit): −1.98
Absolute IC50 (Raji; 96 h, CellTiter-Glo): 0.50 µg/mL
% inhibition at top conc. (Raji; [1]): 99.57%
HillSlope (Raji; 96 h dose-response fit): −2.98
% inhibition at top conc. (A549; [1]): 97.57%
HillSlope (A549; 96 h dose-response fit): −0.93
% inhibition at top conc. (SK-OV-3; [1]): 98.22%
HillSlope (SK-OV-3; 96 h dose-response fit): −1.68
% inhibition at top conc. (MCF7; [1]): 96.37%
HillSlope (MCF7; 96 h dose-response fit): −0.60
Absolute IC50 (JVM-3; 96 h, CellTiter-Glo): 0.14 µg/mL
% inhibition at top conc. (JVM-3; [1]): 99.99%
HillSlope (JVM-3; 96 h dose-response fit): −1.70
Absolute IC50 (NAMALWA; 96 h, CellTiter-Glo): 0.07 µg/mL
% inhibition at top conc. (NAMALWA; [1]): 99.99%
HillSlope (NAMALWA; 96 h dose-response fit): −3.97
Absolute IC50 (JHH-7; 96 h, CellTiter-Glo): 0.44 µg/mL
% inhibition at top conc. (JHH-7; [1]): 99.16%
HillSlope (JHH-7; 96 h dose-response fit): −0.80
Absolute IC50 (NCI-H460; 96 h, CellTiter-Glo): 0.15 µg/mL
% inhibition at top conc. (NCI-H460; [1]): 99.98%
HillSlope (NCI-H460; 96 h dose-response fit): −1.63
Absolute IC50 (CA46; 96 h, CellTiter-Glo): 0.21 µg/mL
% inhibition at top conc. (CA46; [1]): 99.92%
HillSlope (CA46; 96 h dose-response fit): −1.96
Absolute IC50 (ML-2; 96 h, CellTiter-Glo): 0.32 µg/mL
% inhibition at top conc. (ML-2; [1]): 100.00%
HillSlope (ML-2; 96 h dose-response fit): −3.28
Absolute IC50 (NALM-6; 96 h, CellTiter-Glo): 0.21 µg/mL
% inhibition at top conc. (NALM-6; [1]): 99.64%
HillSlope (NALM-6; 96 h dose-response fit): −2.22
Absolute IC50 (NCI-H929; 96 h, CellTiter-Glo): 0.64 µg/mL
% inhibition at top conc. (NCI-H929; [1]): 99.98%
HillSlope (NCI-H929; 96 h dose-response fit): −1.83
Absolute IC50 (Hep G2; 96 h, CellTiter-Glo): 0.55 µg/mL
% inhibition at top conc. (Hep G2; [1]): 98.96%
HillSlope (Hep G2; 96 h dose-response fit): −0.90
Absolute IC50 (DU 145; 96 h, CellTiter-Glo): 0.20 µg/mL
% inhibition at top conc. (DU 145; [1]): 99.24%
HillSlope (DU 145; 96 h dose-response fit): −2.37
Absolute IC50 (OCI-LY-19; 96 h, CellTiter-Glo): 0.04 µg/mL
% inhibition at top conc. (OCI-LY-19; [1]): 99.99%
HillSlope (OCI-LY-19; 96 h dose-response fit): −2.61
Absolute IC50 (WSU-NHL; 96 h, CellTiter-Glo): 0.06 µg/mL
% inhibition at top conc. (WSU-NHL; [1]): 99.99%
HillSlope (WSU-NHL; 96 h dose-response fit): −1.77
Absolute IC50 (DU4475; 96 h, CellTiter-Glo): 0.31 µg/mL
% inhibition at top conc. (DU4475; [1]): 99.94%
HillSlope (DU4475; 96 h dose-response fit): −2.54
Absolute IC50 (U-937; 96 h, CellTiter-Glo): 0.37 µg/mL
% inhibition at top conc. (U-937; [1]): 99.99%
HillSlope (U-937; 96 h dose-response fit): −4.57
Absolute IC50 (AsPC-1; 96 h, CellTiter-Glo): 0.67 µg/mL
% inhibition at top conc. (AsPC-1; [1]): 81.58%
HillSlope (AsPC-1; 96 h dose-response fit): −1.47
Absolute IC50 (THP-1; 96 h, CellTiter-Glo): 0.39 µg/mL
% inhibition at top conc. (THP-1; [1]): 99.98%
HillSlope (THP-1; 96 h dose-response fit): −3.03
Absolute IC50 (Kasumi-1; 96 h, CellTiter-Glo): 0.71 µg/mL
% inhibition at top conc. (Kasumi-1; [1]): 99.98%
HillSlope (Kasumi-1; 96 h dose-response fit): −1.18
Absolute IC50 (K-562; 96 h, CellTiter-Glo): 1.02 µg/mL
% inhibition at top conc. (K-562; [1]): 97.71%
HillSlope (K-562; 96 h dose-response fit): −1.81
Absolute IC50 (EOL-1; 96 h, CellTiter-Glo): 0.16 µg/mL
% inhibition at top conc. (EOL-1; [1]): 99.99%
HillSlope (EOL-1; 96 h dose-response fit): −1.87
Absolute IC50 (OCI-AML2; 96 h, CellTiter-Glo): 0.33 µg/mL
% inhibition at top conc. (OCI-AML2; [1]): 99.96%
HillSlope (OCI-AML2; 96 h dose-response fit): −2.66
Absolute IC50 (HCT-116; 96 h, CellTiter-Glo): 2.89 µg/mL
% inhibition at top conc. (HCT-116; [1]): 91.19%
HillSlope (HCT-116; 96 h dose-response fit): −2.03
